The nature of series [1]: Potential of oxidation peak at a glassy carbon electrode. The series is classed as physicochemical. Particulars: pH 6.95 bis-tris buffer, Ag/AgCl/sat. KCl reference electrode.
For series [2] the following is noted: cited from earlier work; for Solubility: values obtained from SRC PhysProp Database.
The conditions of series [3]: versus SCE; cited from earlier work.

Each structure is given as a SMILES string. Like-named read-outs stand apart in the source and are kept apart here.

For the compound `CC1=C(C)C(=O)C(C)=C(C)C1=O` [Tetramethyl-1,4-benzoquinone], in series [1], the “Eox (potential of oxidation peak)” value is recorded as −37 mV. Further, in series [2] (in water at 25° C.), the solubility in water was 443 mgL^−1. For the same compound, the Solubility in series [2] is 4.43 E+02 (SRC) mg/L.
Regarding `COC1=CC(=O)C=C(CO)C1=O` [2-hydroxymethyl-6-methoxy-1,4-benzoquinone], the “Eox (potential of oxidation peak)” value in series [1] is 158 mV.
As for `CC1=CC(=O)C=C(C)C1=O`, the “Eox (potential of oxidation peak)” value in series [1] came to 137 mV. In addition, the solubility in water in series [2] (in water at 25° C.) is reported as 7888 mgL^−1. The Solubility in series [2] is recorded as 7.88 E+03 (SRC) mg/L.
On to `COC1=CC(=O)C=C(OC)C1=O` [2,6-dimethoxy-1,4-benzoquinone], for which the “Eox (potential of oxidation peak)” value in series [1] was determined as 166 mV. In addition, the solubility in water in series [2] (in water at 25° C.) was 70,600 mgL^−1. In series [2], the Solubility was 7.06 E+04 (SRC) mg/L.
For `O=C1C=CC(=O)C=C1` [1,4-benzoquinone, reference compound], the “Eox (potential of oxidation peak)” value in series [1] is 278 mV. Also, the solubility in water in series [2] (in water at 18° C.) is recorded as 11,000 mgL^−1. Besides, the Solubility in series [2] is given as 1.11 E+04 (SRC) mg/L. Moreover, in series [3], the oxidation potential result is “approximately +400 mV”.
Turning to `COC1=C(OC)C(=O)C(C)=CC1=O` [2,3-dimethoxy-5-methyl-1,4-benzoquinone], the “Eox (potential of oxidation peak)” value in series [1] stood at 156 mV. Moreover, the solubility in water in series [2] (in water at 25° C.) is on record as 11,000 mgL^−1. For the same compound, the Solubility in series [2] was 1.11 E+04 (SRC) mg/L.
Turning to `O=C1C=CC(=O)C(c2ccccc2)=C1` [Phenyl-1,4-benzoquinone], in series [1], the “Eox (potential of oxidation peak)” value is 229 mV. Besides, the solubility in water in series [2] (in water at 25° C.) was 1135 mgL^−1. The Solubility in series [2] is recorded as 1.14 E+03 (SRC) mg/L.

Source of the values: patent US20040265940A1, “Amperometer sensor” (priority 2001, published 2004).
